The source of these data is patent publication US9434684B2, “Oxime-substituted amide compound and pest control agent” (Nissan Chemical Industries, Ltd., priority 2012, dated 2016).

The structures appear in SMILES notation. Some results are limits rather than exact numbers.

In series [1] the test system is Botrytis cinerea. Description: Preventive effect against cucumber gray mold (mycelium inoculation). Type of series: in vivo. The settings on record: 48 h, test solution A 500 ppm, 2 days. The procedure: (§1) Compounds of the present invention were dissolved in a solvent for emulsion (a mixture of Sorpol (registered trademark) 3005XL (manufactured by Toho Chemical Industry Co., Ltd.): N-methylpyrrolidone:Solvesso (registered trademark) 200 (manufactured by ExxonMobil Chemical) in a ratio of 1:5:2) to prepare 20% emulsifiable concentrates. Then, distilled water was added to dilute the emulsifiable concentrates to the predetermined concentration (500 ppm), and the obtained solutions were used in the following Test Examples 1 to 7. Cucumber (cultivar: Sagami Hanjiro) was planted in 90 cm^3 plastic pots, and in the seed leaf stage, 5 ml per pot of test solutions A of the compounds of the present invention were applied. On the next day, the pots were put in a plastic container, and agar blocks (diameter: 5 mm) containing Botrytis cinerea preliminarily cultivated in a PDA medium were inoculated to the seed leaves of the cucumber treated with the solutions. After the inoculation, the plastic container was covered with a plastic sheet and humidified, and placed at 20° C. for 2 days, whereupon the proportion of the formed lesion in the inoculated leaves was measured to calculate the control value in accordance with the same formula as in Test Example 1. Here, the test was carried out in duplicate.

The next series deals with Sclerotinia sclerotiorum. Put plainly: Preventive effect against cucumber stem rot. Type of series: in vivo. Conditions: 48 h, test solution A 500 ppm, 2 days. As for the experimental part: as §1, with “After drying in air,” for “On the next day,”, “Sclerotinia sclerotiorum” for “Botrytis cinerea”
In series [2] the test system is Botrytis cinerea. Put plainly: Preventive effect against cucumber gray mold (spore inoculation). Type of series: in vivo. Conditions: 72 h, cucumber leaves, test solution A 500 ppm, 3 days. The procedure:
Compounds of the present invention were dissolved in a solvent for emulsion (a mixture of Sorpol (registered trademark) 3005XL (manufactured by Toho Chemical Industry Co., Ltd.): N-methylpyrrolidone:Solvesso (registered trademark) 200 (manufactured by ExxonMobil Chemical) in a ratio of 1:5:2) to prepare 20% emulsifiable concentrates. Then, distilled water was added to dilute the emulsifiable concentrates to the predetermined concentration (500 ppm), and the obtained solutions were used in the following Test Examples 1 to 7. Cucumber (cultivar: Sagami Hanjiro) was planted in 90 cm^3 plastic pots, and in the seed leaf stage, 5 ml per pot of test solutions A of the compounds of the present invention were applied. After drying in air, the treated leaves were cut and put in plastic containers. 30 μl of a mixture of a suspension of conidium of Botrytis cinerea and a dissolved PDA medium in a ratio of 1:1 was dropped on each treated leaf and inoculated. After the inoculation, the plastic containers were placed at 20° C. in humid conditions for 3 days, and the proportion of the formed lesion in the inoculated leaves was measured to calculate the control value in accordance with the same formula as in Test Example 1. Here, the test was carried out in duplicate.

For series [3], the system named is Phaeosphaeria nodorum (synonym: Septoria nodorum). Put plainly: Preventive effect against wheat glume blotch. The class given is in vivo. The settings on record: Parastagonospora nodorum, 192 h, test solution A 500 ppm, 2 + 6 days. As for the experimental part:
(§2) Compounds of the present invention were dissolved in a solvent for emulsion (a mixture of Sorpol (registered trademark) 3005XL (manufactured by Toho Chemical Industry Co., Ltd.): N-methylpyrrolidone:Solvesso (registered trademark) 200 (manufactured by ExxonMobil Chemical) in a ratio of 1:5:2) to prepare 20% emulsifiable concentrates. Then, distilled water was added to dilute the emulsifiable concentrates to the predetermined concentration (500 ppm), and the obtained solutions were used in the following Test Examples 1 to 7. To wheat (cultivar: Haruyutaka) in 1.3-leaf stage planted in 90 cm^3 plastic pots, 5 ml per pot of test solutions A of the compounds of the present invention were applied. On the next day, a suspension of conidium of Phaeosphaeria nodorum synonym: Septoria nodorum) was spray-inoculated to the wheat, and the pots were placed in an inoculation chamber at 20° C. under a humidity of 100% for 2 days. Then, the pots were placed in an air-conditioned greenhouse (20° C.) for 6 days. The proportion of the formed lesion in the inoculated leaves was measured to calculate the control value in accordance with the same formula as in Test Example 1. Here, the test was carried out in duplicate.

Another series concerns Puccinia recondita. Description: Preventive effect against wheat brown leaf rust. The class given is in vivo. Conditions: 216 h, test solution A 500 ppm, 1 + 8 days. As for the experimental part:
as §2, with “Norin-61-go)” for “Haruyutaka)”, “spore” for “conidium”, “Puccinia recondita” for “Phaeosphaeria nodorum synonym: Septoria nodorum)”, “1 day.” for “2 days.”, “8” for “6”

A further series concerns Meloidogyne incognita. Put plainly: Preventive effect on Meloidogyne incognita (garden balsam seedlings, root knot). The class given is in vivo. Conditions: 504 h, test solution B 100 ppm, 1 ml per seedling, 3 weeks, read-out: efficacy (damage degree, root knot, relative to non-treated plot). The procedure:
Compounds of the present invention were dissolved in dimethylsulfoxide to prepare 1% solutions. Then, distilled water was added to dilute the solutions to the predetermined concentration (100 ppm), and the obtained solutions were used in the following Test Examples 8 to 12. 1 ml per seedling of test solutions B of the compounds of the present invention were treated to the bases of garden balsam seedlings (about 2 weeks after budding) planted in a cell tray of which each cell was filled with 10 g of soil. 1 Hour after the application, 1 ml per cell of water containing Meloidogyne incognita 2 L larvae (100 2 L larvae/1 ml) was applied to the bases. The tray was placed in a greenhouse for 3 weeks, and the root knot level formed on the root was determined in accordance with the following damage index and the damage degree to calculate the efficacy (%) relative to the non-treated plot in accordance with the following formula. <Damage Index> 0: No knot observed. 1: Knot observed on a part of the root system. 2: Knot observed on the entire root system. 3: Large knot observed. 4: Large knot observed on the entire root system. [Damage degree]=[Σ(damage index×number of seedlings at each index)/(4×number of seedlings investigated)]×100 Efficacy(%)=[1−(damage degree in treated plot/damage degree in non-treated plot)]×100

Take `CC(C)(C)ON=C(CNC(=O)c1nccnc1C(F)(F)F)c1ncc(Cl)cc1Cl` (single isomer, unassigned) [9-006, N-[2-(3,5-dichloropyridin-2-yl)-2-(tert-butoxyimino)ethyl]-3-(trifluoromethyl)pyrazine-2-carboxamide]: the pest or weed control at 500 µg/mL in the series with Botrytis cinerea [1] and with Sclerotinia sclerotiorum was not below 70% each time.
As for `CCO/N=C(\c1ncc(Cl)cc1Cl)[C@H](C)NC(=O)c1ccccc1C(F)(F)F` [2-124, (S)—N-[2-(3,5-dichloropyridin-2-yl)-2-[(Z)-ethoxyimino]-1-methylethyl]-2-(trifluoromethyl)benzamide], the pest or weed control at 500 µg/mL (in the series with Botrytis cinerea [2]; in the series with Botrytis cinerea [1]; in the series with Sclerotinia sclerotiorum; in series [3]; with Puccinia recondita) was not below 70% throughout.
Take `CON=C(CN(C(C)=O)C(=O)c1ccccc1C(F)(F)F)c1ncc(Cl)cc1Cl` [4-013]: the pest or weed control at 500 µg/mL in the series on Botrytis cinerea [2], in the series with Botrytis cinerea [1] and with Sclerotinia sclerotiorum was not below 70% throughout.
For `CON=C(CN(SC(Cl)(Cl)Cl)C(=O)c1ccccc1C(F)(F)F)c1ncc(Cl)cc1Cl` [4-015], the pest or weed control at 500 µg/mL in the series on Botrytis cinerea [2], in the series with Botrytis cinerea [1] and with Sclerotinia sclerotiorum was not below 70% in each case.
Take `CC(C)ON=C(CNC(=O)c1ccccc1C(F)(F)F)c1ncc(Cl)nc1Cl` [24-001]: the pest or weed control at 500 µg/mL in the series on Botrytis cinerea [2], in the series with Botrytis cinerea [1] and in the series on Sclerotinia sclerotiorum was not below 70% throughout.
For the compound `CON=C(c1ncc(Cl)cc1Cl)C(C)NC(=O)c1ccccc1C(F)(F)F` (centres unmarked) [Compound No. 2-115, N-[2-(3,5-dichloropyridin-2-yl)-2-methoxyimino-1-methylethyl]-2-(trifluoromethyl)benzamide], the pest or weed control at 500 µg/mL (with Botrytis cinerea [2]; in the series on Botrytis cinerea [1]; with Sclerotinia sclerotiorum; in series [3]; in the series with Puccinia recondita) was not below 70% throughout. Further, the pest or weed control at 100 µg/mL in the series on Meloidogyne incognita was not below 50%.
In turn, `CO/N=C(\c1ncc(Cl)cc1Cl)C(C)NC(=O)c1ccccc1C(F)(F)F` (centres unmarked) [Compound No. 2-117, (Z)—N-[2-(3,5-dichloropyridin-2-yl)-2-methoxyimino-1-methylethyl]-2-(trifluoromethyl)benzamide] came in with a melting point of 104 to 105 °C. The pest or weed control at 500 µg/mL in the series with Botrytis cinerea [2] is not below 70%. In addition, the pest or weed control at 500 µg/mL in the series with Botrytis cinerea [1] was not below 70%. Besides, in the series with Puccinia recondita, the pest or weed control at 500 µg/mL is not below 70%. Further, the pest or weed control at 100 µg/mL with Meloidogyne incognita is not below 50%.
On to `CCO/N=C(/CNC(=O)c1ccccc1C(F)(F)F)c1ncc(Cl)cc1Cl` [Compound No. 2-120, (Z)—N-[2-(3,5-dichloropyridin-2-yl)-2-(ethoxyimino)ethyl]-2-(trifluoromethyl)benzamide], for which the melting point was 84 to 86 °C. Also, in the series with Botrytis cinerea [2], the pest or weed control at 500 µg/mL was not below 70%. Further, the pest or weed control at 500 µg/mL with Botrytis cinerea [1] was not below 70%. In addition, the pest or weed control at 500 µg/mL in series [3] was not below 70%. In addition, in the series on Puccinia recondita, the pest or weed control at 500 µg/mL was not below 70%. Moreover, the pest or weed control at 100 µg/mL in the series with Meloidogyne incognita was not below 50%.
`CCCO/N=C(/CNC(=O)c1ccccc1C(F)(F)F)c1ncc(Cl)cc1Cl` [Compound No. 2-126, (Z)—N-[2-(3,5-dichloropyridin-2-yl)-2-(propoxyimino)ethyl]-2-(trifluoromethyl)benzamide] registered a melting point of 80 to 83 °C. For the same compound, the pest or weed control at 500 µg/mL in the series with Puccinia recondita was not below 70%. Further, in the series with Meloidogyne incognita, the pest or weed control at 100 µg/mL is not below 50%.
Regarding `CC(O/N=C(/CNC(=O)c1ccccc1C(F)(F)F)c1ncc(Cl)cc1Cl)c1ccc(F)cc1` (centres unmarked) [Compound No. 2-174, (Z)—N-[2-(3,5-dichloropyridin-2-yl)-2-[1-(4-fluorophenyl)ethoxyimino]ethyl]-2-(trifluoromethyl)benzamide], the pest or weed control at 500 µg/mL with Puccinia recondita was not below 70%. For the same compound, the pest or weed control at 100 µg/mL in the series on Meloidogyne incognita was not below 50%.
Regarding `CON=C(CNC(=S)c1ccccc1C(F)(F)F)c1ncc(Br)cc1Cl` [Compound No. 5-001, N-[2-(5-bromo-3-chloropyridin-2-yl)-2-(methoxyimino)ethyl]-2-(trifluoromethyl)benzthioamide], the pest or weed control at 500 µg/mL (with Botrytis cinerea [2]; with Botrytis cinerea [1]; with Sclerotinia sclerotiorum; in series [3]; in the series with Puccinia recondita) was not below 70% each time.
For `CON=C(CN(C(=O)c1c(C(F)(F)F)nn(C)c1F)C1CC1)c1ncc(Cl)cc1Cl` [Compound No. 17-009, N-cyclopropyl-N-[2-(3,5-dichloropyridin-2-yl)-2-(methoxyimino)ethyl]-5-fluoro-1-methyl-3-trifluoromethyl-1H-pyrazole-4-carboxamide], the melting point is 95 to 97 °C. This compound also yielded a pest or weed control at 500 µg/mL in the series on Botrytis cinerea [2] not below 70%. In addition, the pest or weed control at 500 µg/mL in the series with Sclerotinia sclerotiorum was not below 70%. For the same compound, the pest or weed control at 500 µg/mL in series [3] was not below 70%.
